From patent US9879036B2, “Mitochondrial aldehyde dehydrogenase-2 binding compounds and methods of use thereof” (Aviv Therapeutics, Inc., priority 2014, dated 2018)
“Also recorded” adds a separate entry of the source. Values belong to the compound of their own block, whether it stands above or below them.

Assays:
[1] = system: FANCA deficiency lymphocyte cell line (FANCA B-lymphocyte, GM13022); assay: Proliferation of FANCA deficient lymphocytes under 4 HNE challenge (alamarBlue); assay type: cell-based
Procedure: FANCA deficiency lymphocyte cell line (Fanconi Anemia, Complementation Group A, FANCA B-lymphocyte, GM13022) was purchased from Coriell Cell Repositories (403 Haddon Ave, Camden, N.J. 08103).
Standard cell culture conditions were used in this experiment. The culture medium (CM) consisted of culture medium RPMI1640, 15% heat-inactivated FBS, 2 mM L-glutamine, 1% Pen/Strep. Cells were suspended in 10-20 ml CM in T25 tissue culture flask in an upright position and incubated in a 37° C., 5% CO2 incubator. Cells were counted daily and diluted with fresh CM to 3×10^5 cells/ml. Cells thawed and maintained in culture for 3-12 days were used in these studies.
Cell densities of FANCA lymphocytes were determined and cells were diluted in RPMI1640 medium containing 15% FBS, 2 mM L-glutamine, 1% Pen/Strep to desired cell density. 4000 cells in 50-75 μl were plated onto each well in total 48 wells in columns 3-10 and rows B-G. This plating arrangement provided 6-replicates per column for each experimental condition. Plate was then centrifuged at 500 rpm for 2 min to ensure better distribution of cells across the well. For background medium controls, equal volume (50-75 μl) of dilution medium were added to wells B2, C2, D2.
For minimizing cells/medium drying in sample wells, 150 μl of 1×DPBS was added to each well of the 45 wells surrounding the sample and control wells. Plate was then incubated in a 37° C. 5% CO2 incubator for at least 4 hours before addition of new reagent.
Compounds were diluted from 20 mM stocks in DMSO with RPMI1640 medium containing 15% FBS. RPMI1640 medium containing 15% FBS and corresponding volume of DMSO was used as controls.
4 HNE (64 mM in 100% ethanol) was diluted to desired concentrations with RPMI1640 base medium.
AlamarBlue was added to each well to final 9.1 or 10% of the total volume in each well. Plate was further incubated in the 37° C. 5% CO2 incubator. The alamarBlue assay is designed to measure quantitatively the proliferation of human and animal cell lines in culture versus incubation time period.
Plate was removed from the CO2 incubator at a pre-designated time and placed in the microplate reader. The fluorescence level in each well was monitored at Ex 554 nm and Em 590 nm. Afterwards the numeric numbers/units were used for data analyses.
Fluorescence units in all wells were acquired by the microplate reader at each time point. Data were then exported to scientist's computer equipped with SoftMax ProS software. The average of Background units (Blk, 3×) and the average of each sample set (6 replicates) were determined. For data collected at each time point (cell culture incubation period), the average of Blk units were subtracted from the average of each set of the Sample units. These “net fluorescence unit” data were then presented in a plot consisted of different culture incubation time periods (the x-axis) versus the corresponding net fluorescence units (y-axis).
The “net fluorescence units” of each sample set were also compared to those of the “control” at each time point. “Control fluorescence units” were considered to be 100% at all the time points. Each set of “net fluorescence units” were divided by the “Control fluorescent units” and multiplied by 100 to obtain corresponding percentages. These “relative percentage” data were then presented in a plot consisted of time points (the x-axis) versus the corresponding relative percentages to control of 100 (y-axis).
The inhibitory effect of 4 HNE on the proliferation of FANCA lymphocytes was examined. 4000 cells in 75 μl of RPMI1640 medium containing 15% FBS were plated onto each sample well in a 96-well poly D-lysine coated black/clear cell culture plate and the plate was incubated in a 37° C. 5% CO2 incubator for 7 hours.
Stock of 4 HNE at 64 mM was diluted with RPMI1640 medium to 10 μM, 20 μM, 30 μM, 40 μM, 60 μM, 80 μM, and 120 μM. […]

[2] = system: carrageenan inflammatory pain model in male C57BL/6 mice; assay: Carrageenan inflammatory pain model, Von Frey paw withdrawal threshold; assay type: in vivo; settings: for contralateral paw withdrawal threshold / ipsilateral paw withdrawal threshold compared to vehicle: 180 minutes after carrageenan; for carrageenan-induced mechanical hyperalgesia: ipsilateral paw
Procedure: Mice are acclimated to the colony room and maintained on a 12 hour/12 hour light/dark cycle. To induce plantar sensitivity to tactile stimuli, a single injection of carrageenan is administered to the plantar hindpaw of the mice and withdrawal from a mechanical stimulus is measured by applying Von Frey filaments of ascending bending force to the plantar surface of the hind paws.
A compound of formula (I) is dissolved and administered subcutaneous (sc) or orally (po) prior to carrageenan administration and after carrageenan injections. Data is analyzed by analysis of variance (ANOVA) followed by post-hoc comparisons with Fisher Tests when appropriate.
The analgesic effects of AC151 and Alda-1 were evaluated using the carrageenan inflammatory pain model in male C57BL/6 mice. The mice were administered AC151, Alda-1 and vehicle (saline) as a control.
Male C57BL/6J mice from Jackson Laboratories (Bar Harbor, Me.) were used in this study. Mice were received at 6-7 weeks of age. Upon receipt, mice were assigned unique identification numbers (tail marked) and were group housed in OPTImice cages. All animals were acclimated to the colony room for at least 1 week prior to testing. During the period of acclimation, animals were examined on a regular basis, handled, and weighed to assure adequate health and suitability. Animals were maintained on a 12 hour/12 hour light/dark cycle. The room temperature was maintained between 20° C. and 23° C. with a relative humidity maintained between 30% and 70%. Chow and water were provided ad libitum for the duration of the study. All testing was performed during the animal's light cycle phase.
To induce plantar sensitivity to tactile stimuli, a single injection of carrageenan was administered to the plantar hindpaw of the mice and three hours later withdrawal from a mechanical stimulus is measured by applying Von Frey filaments of ascending bending force (0.02 to 6 grams) to the plantar surface of the hind paws (ipsilateral and contralateral to injection). A positive response was defined as withdrawal from the Von Frey filament. Confirmation of threshold is tested by examining the filament above and below the withdrawal response. A significant decrease in withdrawal threshold is interpreted as mechanical hyperalgesia. Prior to drug or carrageenan treatment, baseline Von Frey measures were taken and used to balance animals across treatment groups.
Alda-1 (1, 2, and 5 mg/kg) was dissolved in 50% DMSO/50% PEG and administered subcutaneous (sc), 15 min prior to carrageenan administration and twice again 30 and 150 minutes after carrageenan injections at a dose volume of 5 ml/kg. AC151 (40 and 80 mg/kg) was dissolved in saline and administered orally (po), 30 min after carrageenan administration. For one group, AC151 (80 mg/kg) was administered 15 min prior to carrageenan injections. The dose volume for this compound was 10 ml/kg.
The initial injections of AC151 (80 mg/kg) and Alda-1 were made 15 min prior to carrageenan injections. Then, a single 3.5 μl injection of 3% carrageenan was administered to the right plantar hindpaw. Alda-1 was then administered twice, once 30 minutes after carrageenan and again 150 minutes post-carrageenan. In separate treatment groups AC151 (40 mg/kg and 80 mg/kg) as well as saline vehicle were administered 30 minutes after carrageenan injection. Von Frey measures were taken 180 minutes after carrageenan injection.
Data were analyzed by analysis of variance (ANOVA) followed by post-hoc comparisons with Fisher Tests when appropriate. An effect was considered significant if p<0.05. […].

ALDH2 = biological target: T1, ALDH2 (Homo sapiens, UniProt P05091); assay: ALDH2 activity with 20 μM of the compound (Table 3); assay type: biochemical; settings: 20 μM compound
T1 construct: His-tag (N); made in house; host or cells: E. coli BL21
T1 sequence (P05091 18-517): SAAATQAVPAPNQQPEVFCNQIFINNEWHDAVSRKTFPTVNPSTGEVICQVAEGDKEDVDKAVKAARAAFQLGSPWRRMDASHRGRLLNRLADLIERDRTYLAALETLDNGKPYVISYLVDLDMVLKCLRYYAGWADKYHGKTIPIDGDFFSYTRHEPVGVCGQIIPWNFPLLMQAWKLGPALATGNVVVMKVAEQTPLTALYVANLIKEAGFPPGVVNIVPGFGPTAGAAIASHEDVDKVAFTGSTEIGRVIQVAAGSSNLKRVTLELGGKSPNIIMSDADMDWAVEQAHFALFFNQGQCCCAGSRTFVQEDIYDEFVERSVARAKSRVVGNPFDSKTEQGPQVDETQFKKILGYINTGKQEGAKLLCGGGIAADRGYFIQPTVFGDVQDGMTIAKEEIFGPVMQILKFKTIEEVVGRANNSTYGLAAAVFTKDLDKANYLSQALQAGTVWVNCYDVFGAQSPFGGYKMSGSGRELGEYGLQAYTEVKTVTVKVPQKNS
How it was run: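 Compound was tested at 20 μM. ALDH2 oxidation of acetaldehyde with NAD+ cofactor was followed spectrophotometrically as NADH accumulation at 340 nm. Activity is expressed relative to the enzyme's baseline activity, taken as 100%.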

Compound: CCCCCC(O)/C=C/C=O (stereo not drawn) [4 HNE, trans-4-Hydroxynonenal, reference compound]
relative cell proliferation rate (control = 100%) ([1]; 3.5 μM 4 HNE only, 25 hours to 48 hours after 4 HNE treatment): 83%
level of FANCA cell proliferation ([1]; 4 HNE 2.5 to 30 μM, no ALDH2 activator): reduction of the level of cell proliferation in a concentration-dependent manner

Compound: COc1ccc(CNC(=O)c2cc(-c3ncccc3COC(=O)[C@H](N)C(C)C)ccc2OCC(C)C)cc1F [AC151]
contralateral paw withdrawal threshold [2]: No treatment effects
ipsilateral paw withdrawal threshold compared to vehicle ([2]; AC151 40 and 80 mg/kg po (all groups)): significantly increased paw withdrawal threshold
carrageenan-induced mechanical hyperalgesia [2]: attenuated carrageenan-induced mechanical hyperalgesia

Compound: O=C(NCc1ccc2c(c1)OCO2)c1c(Cl)cccc1Cl [Alda-1, N-(1,3-Benzodioxol-5-ylmethyl)-2,6-dichlorobenzamide, reference compound]
contralateral paw withdrawal threshold [2]: No treatment effects
ipsilateral paw withdrawal threshold compared to vehicle ([2]; Alda-1 5 mg/kg sc, three doses): significantly increased paw withdrawal threshold
carrageenan-induced mechanical hyperalgesia [2]: attenuated carrageenan-induced mechanical hyperalgesia

activity at 20 µM (ALDH2): > 250%
Compound: COc1ccc(CNC(=O)c2cc(-c3n[nH]cc3CO)ccc2OCC2CC2)cc1F [AC32]
relative cell proliferation versus control without AC compounds ([1]; 3.5 μM 4 HNE, 5 μM and 10 μM AC6, 10 μM AC32, 25 hours to 48 hours after 4 HNE treatment): higher levels of cell growth than “control”; also recorded: more efficient growth than control
FANCA-deficiency lymphocyte cell growth versus 4 HNE only or 2 μM ALDH2 activators ([1]; 10 μM compound, pretreatment 2 hours before 6 μM 4 HNE challenge): higher levels of cell growth
FANCA-deficiency lymphocyte cell growth versus 4 HNE only ([1]; pretreatment 2 hours before 3.5 μM 4 HNE challenge, 2 to 10 μM compound): higher levels of cell growth
